Experiment [1] addresses human D3 dopamine receptor (Homo sapiens (Human), UniProt P35462). The experiment can be described thus: Radioligand binding ([3H]-spiperone) to cloned human D3 receptor expressed in HEK-293 EBNA cells. The conditions noted are these: membranes of transfected HEK-293 EBNA cells, 0.5 nM [3H]-spiperone, 1 h at RT. As to the method: HEK-293 EBNA cells were transiently transfected with expression plasmids encoding for the human D2 or D3 dopamine- or for the human 5-HT2A serotonin receptor, respectively. The cells were harvested 48 h post-transfection, washed three times with cold PBS and stored at −80° C. prior to use. […] After centrifugation at 48,000×g for 30 min at 4° C., the pellet was resuspended in cold 10 mM Tris-HCl buffer containing 0.1 mM EDTA (pH 7.4), homogenized, and centrifuged as above. […] The protein content of this homogenate was determined with the Bio-Rad (Bradford) Protein Assay (Biorad Laboratories GmbH, München, Germany) according to the instructions of the manufacturer using gamma globulin as the standard. This homogenate was stored at −80° C. in aliquots and thawed immediately prior to use.
(§1) The binding affinity (Ki) of the compounds was determined using radioligand binding. Membranes were incubated in a total volume of 200 μl with a fixed concentration of radioligand (final concentration approximately 0.7 nM [^3H]-spiperone for D2, 0.5 nM [^3H]-spiperone for D3, and 1.1 nM [^3H]-ketanserin for 5-HT2A) and ten concentrations of test compound in ranging between 10 μM-0.1 nM for 1 h at RT. At the end of the incubation, the reaction mixtures were filtered on to unifilter 96-well white microplates with bonded GF/C filters (Packard BioScience, Zürich, Switzerland; preincubated for 1 h in 0.1% polyethylenimine (PEI) in assay buffer) with a Filtermate 196 harvester (Packard BioScience) and washed 3 times with cold assay buffer. The nonspecific binding was determined with equally composed reaction mixtures in the presence of 10 μM unlabelled spiperone. Per well 45 μl of Microscint 40 (Perkin Elmer, Schwerzenbach, Switzerland) was added, plates for sealed, shaken for 20 min and counted for 3 min on a Topcount Microplate Scintillation Counter (Canberra Packard SA, Zürich, Switzerland) with quenching correction.
(§2) The CPM value for each duplicate of a concentration of competing compound was averaged (y1), then the % specific binding was calculated according to the equation (((y1−non-specific)/(total binding−non-specific))×100). Graphs were plotted with the % specific binding using XLfit, a curve fitting program that iteratively plots the data using Levenburg Marquardt algorithm. The single site competition analysis equation used was y=A+((B−A)/(1+((x/C)^D))), where y is the % specific binding, A is the minimum y, B is the maximum y, C is the IC50, x is the log10 of the concentration of the competing compound and D is the slope of the curve (the Hill Coefficient). From these curves the IC50 (inhibition concentration at which 50% specific binding of the radioligand was displaced) and Hill coefficient were determined. The affinity constant (Ki) was calculated using the Cheng-Prusoff equation Ki=(IC50/1+([L]/Kd), where [L] is the concentration of radioligand and Kd is the dissociation constant of the radioligand at the receptor as determined by the saturation isotherm.

Experiment [2] concerns the target human 5-HT2A serotonin receptor (Homo sapiens (Human), UniProt P28223). Nature of the experiment: Radioligand binding ([3H]-ketanserin) to cloned human 5-HT2A receptor expressed in HEK-293 EBNA cells. The conditions noted are these: membranes of transfected HEK-293 EBNA cells, 1.1 nM [3H]-ketanserin, 1 h at RT. As to the method:
The ability of the compounds to bind to the 5-HT2A, D3 and D2 receptors was determined using radioligand binding to cloned receptors selectively expressed in HEK-293 EBNA cells.
HEK-293 EBNA cells were transiently transfected with expression plasmids encoding for the human D2 or D3 dopamine- or for the human 5-HT2A serotonin receptor, respectively. The cells were harvested 48 h post-transfection, washed three times with cold PBS and stored at −80° C. prior to use. The pellet was suspended in cold 50 mM Tris-HCl buffer containing 10 mM EDTA (pH 7.4) and homogenized with a Polytron (Kinematica AG, Basel, Switzerland) for 20-30 sec at 12,000 rpm. After centrifugation at 48,000×g for 30 min at 4° C., the pellet was resuspended in cold 10 mM Tris-HCl buffer containing 0.1 mM EDTA (pH 7.4), homogenized, and centrifuged as above. This pellet was further resuspended in a smaller volume of ice cold 10 mM Tris-HCl buffer containing 0.1 mM EDTA (pH 7.4) and homogenized with a Polytron for 20-30 sec at 12,000 rpm. The protein content of this homogenate was determined with the Bio-Rad (Bradford) Protein Assay (Biorad Laboratories GmbH, München, Germany) according to the instructions of the manufacturer using gamma globulin as the standard. This homogenate was stored at −80° C. in aliquots and thawed immediately prior to use.
Aliquots of membrane preparations were thawed at RT, resuspended in assay buffer (D2, D3: 50 mM Tris-HCl, 120 mM NaCl, 5 mM MgCl2, 1 mM EDTA, 5 mM KCl, 1.5 mM CaCl2, pH=7.4; 5-HT2A: 50 mM Tris-HCl, 10 mM MgCl2, 1 mM EGTA, pH=7.4), homogenized with a Polytron for 20-30 sec at 12,000 rpm and adjusted to a final concentration of approximately 7.5 μg protein/well (D2, D3) and 15 μg protein/well (5-HT2A), respectively.
as §1, §2

Experimental findings from patent US8829029B2, “Dual modulators of 5HT2A and D3 receptors” (Hoffmann-La Roche Inc., priority 2008, dated 2014) are described below.

Sequence of human D3 dopamine receptor (P35462 whole entry): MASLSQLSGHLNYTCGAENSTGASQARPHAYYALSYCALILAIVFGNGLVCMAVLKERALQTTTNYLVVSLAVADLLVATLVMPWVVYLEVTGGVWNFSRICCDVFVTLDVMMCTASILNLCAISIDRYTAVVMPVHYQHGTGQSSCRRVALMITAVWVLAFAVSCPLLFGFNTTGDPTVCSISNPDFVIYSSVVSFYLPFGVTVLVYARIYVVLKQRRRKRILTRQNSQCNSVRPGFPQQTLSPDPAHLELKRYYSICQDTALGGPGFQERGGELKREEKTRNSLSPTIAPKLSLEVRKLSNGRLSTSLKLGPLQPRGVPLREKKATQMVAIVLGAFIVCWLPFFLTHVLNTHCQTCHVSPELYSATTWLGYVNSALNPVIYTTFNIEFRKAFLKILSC

For `O=C(N[C@H]1CC[C@H](CCN2CCC(c3noc4cc(Cl)ccc34)CC2)CC1)C(O)C(F)(F)F` (stereo partly drawn) [Example 33, N-trans-(4-{2-[4-(6-Chloro-benzo[d]isoxazol-3-yl)-piperidin-1-yl]-ethyl}-cyclohexyl)-3,3,3-trifluoro-2-hydroxy-propionamide], the Ki was 11 nM in experiment [1] and 21.9 nM in experiment [2].

Turning to `O=C(CC1CCC2(CC1)OCCO2)N[C@H]1CC[C@H](CCN2CCC(c3noc4cc(Cl)ccc34)CC2)CC1` [Example 36, N-trans (4-{2-[4-(6-Chloro-benzo[d]isoxazol-3-yl)-piperidin-1-yl]-ethyl}-cyclohexyl)-2-(1,4-dioxa-spiro[4.5]dec-8-yl)-acetamide], the values for the Ki in experiment [1] and in experiment [2] were 12.2 nM and 8.31 nM, respectively.

On to `COC(CC(=O)N[C@H]1CC[C@H](CCN2CCC(c3noc4cc(Cl)ccc34)CC2)CC1)OC` [Example 37, N-trans-(4-{2-[4-(6-Chloro-benzo[d]isoxazol-3-yl)-piperidin-1-yl]-ethyl}-cyclohexyl)-3,3-dimethoxy-propionamide], for which the Ki amounted to 9.03 nM in experiment [1] and 13.7 nM in experiment [2].

For `O=C(CC1CCCO1)N[C@H]1CC[C@H](CCN2CCC(c3noc4cc(Cl)ccc34)CC2)CC1` (stereo partly drawn) [Example 38, N-trans-(4-{2-[4-(6-Chloro-benzo[d]isoxazol-3-yl)-piperidin-1-yl]-ethyl}-cyclohexyl)-2-(tetrahydro-furan-2-yl)-acetamide], the Ki worked out at 9 nM in experiment [1] and 13 nM in experiment [2].

`C[C@@H](O)CC(=O)N[C@H]1CC[C@H](CCN2CCC(c3noc4cc(Cl)ccc34)CC2)CC1` [Example 39, (R)-N-trans (4-{2-[4-(6-Chloro-benzo[d]isoxazol-3-yl)-piperidin-1-yl]-ethyl}-cyclohexyl)-3-hydroxy-butyramide]: the Ki in experiment [1] came out at 17 nM; in experiment [2], 13 nM.

Consider `CC1(C)OC[C@H](CC(=O)N[C@H]2CC[C@H](CCN3CCC(c4noc5cc(Cl)ccc45)CC3)CC2)O1` [Example 40, N-trans (4-{2-[4-(6-Chloro-benzo[d]isoxazol-3-yl)-piperidin-1-yl]-ethyl}-cyclohexyl)-2-((S)-2,2-dimethyl-[1,3]dioxolan-4-yl)-acetamide], for which the results for the Ki in experiment [1] and in experiment [2] were 6 nM and 25 nM, respectively.

`CO[C@H]1CC[C@H](CC(=O)N[C@H]2CC[C@H](CCN3CCC(c4noc5cc(Cl)ccc45)CC3)CC2)C1` [Example 41, N-trans (4-{2-[4-(6-Chloro-benzo[d]isoxazol-3-yl)-piperidin-1-yl]-ethyl}-cyclohexyl)-2-((1S,3S)-3-methoxy-cyclopentyl)-acetamide]: the Ki in experiment [1] was 10 nM; in experiment [2] it was 14 nM.

As to `COC1(C)CCC(CC(=O)N[C@H]2CC[C@H](CCN3CCC(c4noc5cc(Cl)ccc45)CC3)CC2)CC1` (stereo partly drawn) [Example 42, N-trans(4-{2-[4-(6-Chloro-benzo[d]isoxazol-3-yl)-piperidin-1-yl]-ethyl}-cyclohexyl)-2-(4-methoxy-4-methyl-cyclohexyl)-acetamide], the Ki in experiment [1] was 8 nM; in experiment [2], 19 nM.

With `CO[C@]1(C)CC[C@@H](CC(=O)N[C@H]2CC[C@H](CCN3CCC(c4noc5cc(Cl)ccc45)CC3)CC2)CC1` [Example 42A, N-trans(4-{2-[4-(6-Chloro-benzo[d]isoxazol-3-yl)-piperidin-1-yl]-ethyl}-cyclohexyl)-2-(4-trans-methoxy-4-methyl-cyclohexyl)-acetamide], the Ki in experiment [1] was 6 nM; in experiment [2] it was 16 nM.

Turning to `CO[C@]1(C)CC[C@H](CC(=O)N[C@H]2CC[C@H](CCN3CCC(c4noc5cc(Cl)ccc45)CC3)CC2)CC1` [Example 42B, N-trans(4-{2-[4-(6-Chloro-benzo[d]isoxazol-3-yl)-piperidin-1-yl]-ethyl}-cyclohexyl)-2-(4-cis-methoxy-4-methyl-cyclohexyl)-acetamide], the Ki was found to be 4 nM in experiment [1] and 14 nM in experiment [2].

With `COC(C)CC(=O)N[C@H]1CC[C@H](CCN2CCC(c3noc4cc(Cl)ccc34)CC2)CC1` (stereo partly drawn) [Example 43, N-trans(4-{2-[4-(6-Chloro-benzo[d]isoxazol-3-yl)-piperidin-1-yl]-ethyl}-cyclohexyl)-3-methoxy-butyramide], the values for the Ki in experiment [1] and in experiment [2] were 10 nM and 13 nM, respectively.

Regarding `CO[C@H](C)CC(=O)N[C@H]1CC[C@H](CCN2CCC(c3noc4cc(Cl)ccc34)CC2)CC1` [Example 43A, (R)—N-trans(4-{2-[4-(6-Chloro-benzo[d]isoxazol-3-yl)-piperidin-1-yl]-ethyl}-cyclohexyl)-3-methoxy-butyramide], the Ki in experiment [1] was found to be 15 nM; in experiment [2] it was 16 nM.

On to `CO[C@@H](C)CC(=O)N[C@H]1CC[C@H](CCN2CCC(c3noc4cc(Cl)ccc34)CC2)CC1` [Example 43B, (S)—N-(4-{2-[4-(6-Chloro-benzo[d]isoxazol-3-yl)-piperidin-1-yl]-ethyl}-cyclohexyl)-3-methoxy-butyramide], for which the Ki was 6 nM in experiment [1] and 16 nM in experiment [2].

For the compound `COC[C@H]1CC[C@H](CC(=O)N[C@H]2CC[C@H](CCN3CCC(c4noc5cc(Cl)ccc45)CC3)CC2)CC1` [Example 44, N-trans-(4-{2-[4-(6-Chloro-benzo[d]isoxazol-3-yl)-piperidin-1-yl]-ethyl}-cyclohexyl)-2-trans (4-methoxymethyl-cyclohexyl)-acetamide], the Ki in experiment [1] was 9 nM; in experiment [2], 19 nM.

As to `CC1(O)CCC(CC(=O)N[C@H]2CC[C@H](CCN3CCC(c4noc5cc(Cl)ccc45)CC3)CC2)CC1` (stereo partly drawn) [Example 45, N-trans(4-{2-[4-(6-Chloro-benzo[d]isoxazol-3-yl)-piperidin-1-yl]-ethyl}-cyclohexyl)-2-(4-hydroxy-4-methyl-cyclohexyl)-acetamide], the results for the Ki in experiment [1] and in experiment [2] were 7 nM and 15 nM, respectively.

In the case of `CC(=O)N[C@H]1CC[C@H](CCN2CCC(c3noc4cc(Cl)ccc34)CC2)CC1` [Example 46, N-trans(4-{2-[4-(6-Chloro-benzo[d]isoxazol-3-yl)-piperidin-1-yl]-ethyl}-cyclohexyl)-acetamide], the figures for the Ki in experiment [1] and in experiment [2] were 8.19 nM and 23.7 nM, respectively.

`CCS(=O)(=O)N[C@H]1CC[C@H](CCN2CCC(c3noc4cc(F)ccc34)CC2)CC1` [Example 47, Ethanesulfonic acid (4-trans {2-[4-(6-fluoro-benzo[d]isoxazol-3-yl)-piperidin-1-yl]-ethyl}-cyclohexyl)-amide]: the Ki in experiment [1] turned out to be 5.85 nM; in experiment [2], 1.66 nM.

As for `O=S(=O)(N[C@H]1CC[C@H](CCN2CCC(c3noc4cc(F)ccc34)CC2)CC1)c1ccc(Cl)cc1` [Example 48, 4-Chloro-N-trans (4-{2-[4-(6-fluoro-benzo[d]isoxazol-3-yl)-piperidin-1-yl]-ethyl}-cyclohexyl)-benzenesulfonamide], the Ki came out at 5.87 nM in experiment [1] and 5.13 nM in experiment [2].

What is called Ki is the equilibrium dissociation constant of an inhibitor or competing ligand from its target.
